Reference: patent US20110039779A1, “IGF-1R BINDING PROTEINS AND ANTAGONISTS” (priority 2007, published 2011)
Values joined by “and” are separate entries in the source; they are usually repeats but may differ in a detail not shown here. Equal values may be shown once. Read-outs that look alike come from different tables or passages of the source.

What was measured:
SW480 cells = type: cell-based
Description: For cell growth/density studies, a mitochondrial activity assay was used, as exemplified by the following. Cells (SW480, MCF-7S8) were propagated in complete medium (DME: F12, 10% FCS (SW 480) or 5% FCS (MCF-7S8, P/S)), trypsinized, and seeded in 96 well plates as 10,000 cells/well in medium with 0.5% FCS. All wells in the periphery were omitted and only filled with medium. […] All treatments are made in triplicates. […] Treatment was continued for 48 hours (SW480 cells) or 72 hours (MCF-7S8 cells) before quantification of the cell density. Media was exchanged each day. Media and peptides were diluted in DMSO. When measuring cell density, the volume of each well was adjusted to […] Pre-diluted WST-1 (1 ml+1.5 ml DME:F12) was added as 25 μL to each well including background samples. Three wells with media only served as background controls. The cells were incubated for 90 min protected against light in an incubator.

purified HIGF-1R = target: T1, purified HIGF-1R (Homo sapiens, UniProt P08069); test: IGF-1R activation kinase assay; type: biochemical; conditions: FIG. 2
T1 construct: HIGF-1R was purified from a cell culture of BHK cells stably transfected with IGF-1R cDNA; made in house; host or cells: BHK cells stably transfected with IGF-1R cDNA
T1 sequence (P08069 31-736 limits assumed): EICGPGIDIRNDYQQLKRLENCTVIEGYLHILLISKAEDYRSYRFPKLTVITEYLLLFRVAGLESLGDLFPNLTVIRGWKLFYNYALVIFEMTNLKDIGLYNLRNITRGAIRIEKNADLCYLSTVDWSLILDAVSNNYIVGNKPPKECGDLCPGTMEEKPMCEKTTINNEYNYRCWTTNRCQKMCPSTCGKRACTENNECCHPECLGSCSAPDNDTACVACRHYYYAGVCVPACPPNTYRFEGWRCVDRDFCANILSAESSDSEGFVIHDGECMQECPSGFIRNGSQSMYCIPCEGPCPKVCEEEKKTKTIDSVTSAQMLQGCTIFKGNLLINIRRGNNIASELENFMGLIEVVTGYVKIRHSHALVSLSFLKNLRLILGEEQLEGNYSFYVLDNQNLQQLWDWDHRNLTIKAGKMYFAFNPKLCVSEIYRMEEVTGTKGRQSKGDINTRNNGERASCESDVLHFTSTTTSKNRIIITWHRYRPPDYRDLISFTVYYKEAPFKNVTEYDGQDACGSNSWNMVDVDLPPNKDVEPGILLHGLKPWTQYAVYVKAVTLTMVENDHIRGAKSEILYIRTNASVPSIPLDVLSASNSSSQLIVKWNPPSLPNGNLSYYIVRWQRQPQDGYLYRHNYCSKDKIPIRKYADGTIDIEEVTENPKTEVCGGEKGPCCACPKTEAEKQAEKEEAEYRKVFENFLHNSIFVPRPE
T1 sequence (P08069 741-1367 limits assumed): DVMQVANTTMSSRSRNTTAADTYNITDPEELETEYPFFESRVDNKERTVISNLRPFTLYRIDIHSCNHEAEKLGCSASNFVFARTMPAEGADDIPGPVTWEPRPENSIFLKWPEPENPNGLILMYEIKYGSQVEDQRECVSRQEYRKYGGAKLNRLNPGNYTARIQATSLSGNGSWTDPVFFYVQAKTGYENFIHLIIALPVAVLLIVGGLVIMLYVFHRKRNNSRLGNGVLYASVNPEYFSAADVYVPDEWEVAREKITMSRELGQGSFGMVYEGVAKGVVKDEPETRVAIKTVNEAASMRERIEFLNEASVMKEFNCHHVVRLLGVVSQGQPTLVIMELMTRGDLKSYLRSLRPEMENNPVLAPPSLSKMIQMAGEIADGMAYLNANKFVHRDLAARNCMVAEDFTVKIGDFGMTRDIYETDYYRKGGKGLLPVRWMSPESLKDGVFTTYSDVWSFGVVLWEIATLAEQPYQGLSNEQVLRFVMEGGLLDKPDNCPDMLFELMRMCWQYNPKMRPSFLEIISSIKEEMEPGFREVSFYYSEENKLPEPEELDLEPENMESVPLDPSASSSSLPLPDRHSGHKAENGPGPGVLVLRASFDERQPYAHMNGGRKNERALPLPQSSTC
Description: For determining IGF-1R activation with test peptides, a kinase assay, generally using the following conditions was employed. A solution of each test peptide in kinase buffer (Hepes 100 mM (pH 8.0), MgCl2 8 mM, MnCl2 6 mM, Triton X100 0.1% v/v, BSA 0.2% w/v, 4 μg/ml IRS-1 peptide (Biotin-[…] in PBS+1 mg/ml)) was prepared. Samples were mixed in a microtiter plate in triplicate. 50 μl 2× kinase buffer was added into each well. […] Volume was adjusted to 88 μL, before addition of purified HIGF-1R (2 μl/well). Plates were shaken and incubated for 50 min. at room temperature (RT). DTT and 10 μl/well ATP were added and the wells incubated for 10 min. before stopping the reaction by adding 10 μl stop-buffer (50 mM EDTA (pH 8.0))/well and shaking. The samples were then transferred to streptavidin coated plates and incubated for 1 hour at RT. The coated plates were aspirated and washed 3 times with TBS-T. […] P-tyr Ab-PO (Phosphotyrosine-RC20:HRPO (1:1000) in TBS-T) was added and each plate was incubated for 30 min at RT. The plates were aspirated and washed 3 times with TBS-T. 100 μl TMB-One-substrate (Kem-En-Tec Diagnostics A/S—Denmark) (preheated to RT) was then added and the plates further incubated for approximately 20 min at RT. This reaction was stopped by adding 10 μl H2SO4 and the plates were read in an ELISA-reader at […] within 5-10 min. thereafter. […]

MCF7 cells = MCF7 cells (Homo sapiens, UniProt P08069); test: antagonism assay in starved MCF7 cells, luminescence viability, 72 hrs; type: cell-based; conditions: Table 9
Sequence of MCF7 cells (P08069 31-736): as the sequence (P08069 31-736 limits assumed) above
Description: Additional binding and antagonism assays using candidate peptides were performed. […] Cell viability was determined by luminescence assay and IC50 was calculated using standard techniques.

IGF-IR = test: downstream signaling in L6 cells: IGF-IR; type: cell-based; conditions: 3 nM IGF-1, read-out: IGF-IR, IC50 for down regulation of the stimulation to the basal level
Description: (§1) The tyrosine phosphorylation of IRS signaling (the 180 kDa band on a tyrosine phosphor Western blot) as well as activation of effectors MAPK 44 and 42 and PKB were analyzed by using antibodies specific for their active forms using methods substantially similar to those described in Example 14 of the '246 PCT application.
(§2) The effect of select peptides on downstream signaling (MAPK44, MAPK42, PKB/Akt, IRS-1, and IGF-1R) was also measured by studying the signaling in L6 cells predominantly expressing IGF-1R and very limited insulin receptors. […] The antagonistic effect of the peptides can be seen to affect all the downstream signaling from the IGF-1R.

IRS-1 = test: downstream signaling: IRS-1 tyrosine phosphorylation; type: cell-based; conditions: L6 cells; 3 nM IGF-1; read-out: IRS-1, IC50 for down regulation of the stimulation to the basal level
Description: as §1, §2

MAPK42 = test: downstream signaling in L6 cells: MAPK42; type: cell-based; conditions: 3 nM IGF-1, read-out: MAPK42, IC50 for down regulation of the stimulation to the basal level
Description: as §1, §2

MAPK44 = test: downstream signaling in L6 cells: MAPK44; type: cell-based; conditions: 3 nM IGF-1, read-out: MAPK44, IC50 for down regulation of the stimulation to the basal level
Description: as §1, §2

[1] = first value of the cell: concentration needed to blunt the effect of 10 nM IGF-1, cells in words only = effect as reported, 48 hours
[2] = read-out: IC50, inhibition of IGF-1 (10 nM)-induced proliferation of SW480 cells, experiment 13262-015
[3] = read-out: IC50, inhibition of IGF-1 (10 nM)-induced proliferation of SW480 cells, experiment 13262-016
[4] = read-out: IC50 in SW480 (M) in presence of IGF-1/alone: in presence of IGF-1, first value of the cell: concentration needed to blunt the effect of 10 nM IGF-1, cells in words only = effect as reported, 48 hours
[5] = read-out: IC50 in SW480 (M) in presence of IGF-1/alone: alone, second value of the cell: concentration needed to inhibit basal level in 0.5% FCS

CC[C@H](C)[C@H](NC(=O)[C@H](CS)NC(=O)[C@H](CCCNC(=N)N)NC(=O)[C@H](CCCNC(=N)N)NC(=O)[C@H](CCCNC(=N)N)NC(=O)[C@H](Cc1c[nH]c2ccccc12)NC(=O)CNC(=O)[C@H](Cc1ccccc1)NC(=O)[C@H](CO)NC(=O)[C@@H]1CCCN1C(=O)[C@@H](NC(=O)CNC(=O)[C@H](CC(C)C)NC(=O)[C@H](CO)NC(=O)[C@H](CC(C)C)NC(=O)[C@H](CC(=O)O)NC(=O)[C@H](CC(C)C)NC(=O)[C@H](CC(C)C)NC(=O)[C@H](CS)NC(=O)CNC(=O)[C@H](Cc1ccc(O)cc1)NC(=O)[C@H](Cc1ccccc1)NC(=O)[C@@H]1CCC(=O)N1)C(C)C)C(=O)N[C@H](C(=O)N[C@@H](C)C(=O)O)[C@@H](C)O [Peptide F138P]
IC50 (SW480 cells): 5e-07 M
inhibition of basal growth of SW480, doses (SW480 cells; without IGF-1): > 100 nM

Ac-ESDVWAQPQRRNDWPGYHWLSR [Peptide F288]
IC50 in SW480 (M) in presence of IGF-1/alone: in presence of IGF-1 (SW480 cells; [1]): No effect

Ac-SFYSCLESLVQGPAEKSRGQWEGCRX [Peptide F369]
IC50 (SW480 cells; [2]): > 1e-05 M
IC50 (SW480 cells; [3]): > 1e-05 M

Ac-VEGROLFYDLLROLLAMRRNG [Peptide F235]
inhibition of IGF-1R kinase activation by IGF-1 (purified HIGF-1R): completely inhibit
IC50 in SW480 (M) in presence of IGF-1/alone: in presence of IGF-1 (SW480 cells; [1]): No effect

Ac-VGRASGPPENFYDWPGRQLSLQSGEQRR [Peptide F287]
IC50 in SW480 (M) in presence of IGF-1/alone: in presence of IGF-1 (SW480 cells; [1]): No effect

DMGDVECEDPFYDWFACQVRDTEFDE [Peptide F115]
IC50 in SW480 (M) in presence of IGF-1/alone: in presence of IGF-1 (SW480 cells; [1]): No effect

EERATPRWRGYEWFDAQVERE [Peptide F211]
IC50 in SW480 (M) in presence of IGF-1/alone: in presence of IGF-1 (SW480 cells; [1]): No effect

EFGTGYGGDGGGYWSGYEWLAW [Peptide F207]
IC50 in SW480 (M) in presence of IGF-1/alone: in presence of IGF-1 (SW480 cells; [1]): No effect
IC50 (SW480 cells; [4]): 2e-06 M

EFLTRLLERLGLSWERGEAGGPYAQAE [Peptide F175]
IC50 in SW480 (M) in presence of IGF-1/alone: in presence of IGF-1 (SW480 cells; [1]): No effect

EFSGFCMGLERLSOVSLGYCGAGOGGE [Peptide F169]
IC50 (SW480 cells; [4]): 2e-06 M

EGLLFCKQLFTLAGLQPEAGCVSSSRE [Peptide F165]
IC50 in SW480 (M) in presence of IGF-1/alone: in presence of IGF-1 (SW480 cells; [1]): No effect

EGRVDDAFYENFERQLGE [Peptide F213]
IC50 in SW480 (M) in presence of IGF-1/alone: in presence of IGF-1 (SW480 cells; [1]): No effect
IC50 (SW480 cells; [4]): 2e-06 M

EIQRDCQGRPCGDAANFYDWFVQQDSE [Peptide F268]
IC50 in SW480 (M) in presence of IGF-1/alone: in presence of IGF-1 (SW480 cells; [1]): No effect

EISFRCQLFVLAGMHPCPVDVGGEGFE [Peptide F170]
IC50 in SW480 (M) in presence of IGF-1/alone: in presence of IGF-1 (SW480 cells; [1]): No effect

ELQGFCELLATVTGVTGLGCLDYQPIE [Peptide F202]
IC50 in SW480 (M) in presence of IGF-1/alone: in presence of IGF-1 (SW480 cells; [1]): No effect
IC50 (SW480 cells; [4]): > 1e-05 M
IC50 in SW480 (M) in presence of IGF-1/alone: alone (SW480 cells; second value of the cell: concentration needed to inhibit basal level in 0.5% FCS): no effect

ELSFACLLSQLSGVVLPDCLLGEDE [Peptide F201]
IC50 in SW480 (M) in presence of IGF-1/alone: in presence of IGF-1 (SW480 cells; [1]): No effect

ENRSGELWEGYGWFNMQVRGE [Peptide F212]
IC50 in SW480 (M) in presence of IGF-1/alone: in presence of IGF-1 (SW480 cells; [1]): No effect

EVDRDCQARPCGDAANFYDWFGQQGTE [Peptide F269]
IC50 (SW480 cells; [5]): > 1e-05 M
IC50 (SW480 cells; [4]): 5e-07 M

EVTSAGQWEGYEWFLGALHAE [Peptide F210]
IC50 in SW480 (M) in presence of IGF-1/alone: in presence of IGF-1 (SW480 cells; [1]): No effect

FFYRCLSRLLGGOLGSRLGLSCIGD [Peptide F139]
IC50 in SW480 (M) in presence of IGF-1/alone: in presence of IGF-1 (SW480 cells; [1]): Antagonistic

GIISQSCPESFYDWFAGQVSDPWWCW-Lig [Peptide F116]
IC50 in SW480 (M) in presence of IGF-1/alone: in presence of IGF-1 (SW480 cells; [1]): No effect

GSLDESFYDWFERQLGKK-Lig [Peptide F118]
IC50 in SW480 (M) in presence of IGF-1/alone: in presence of IGF-1 (SW480 cells; [1]): No effect

GSLDESFYRWFERQLEGGSGGSGLEQERAGTWCENSGRGCLH [Peptide F156]
IC50 in SW480 (M) in presence of IGF-1/alone: in presence of IGF-1 (SW480 cells; [1]): No effect

GVRAMSFYDALVSVLGLGPSG [Peptide F157]
IC50 in SW480 (M) in presence of IGF-1/alone: in presence of IGF-1 (SW480 cells; [1]): No effect

NFYGCLLDLSLGVPSFGWRRRCITA [Peptide F408]
Activity (MCF7 cells): Antagonist

QFYGCLLDLSLGVPSPGWRRRCITA [Peptide F393]
IC50 (SW480 cells; read-out: IC50, inhibition of IGF-1 (10 nM)-induced proliferation of SW480 cells, experiment 13262-027): 1e-06 M
IC50 (SW480 cells; read-out: IC50, inhibition of IGF-1 (10 nM)-induced proliferation of SW480 cells, experiment 13262-029): 1e-06 M

RQWDCRGRPCGDAESFYEWFDQQRS [Peptide F264]
IC50 (SW480 cells; [5]): > 1e-05 M
IC50 (SW480 cells; [4]): > 1e-05 M

SAAQLFFQESFYDWFLRQVAESSQPN [Peptide F162]
IC50 in SW480 (M) in presence of IGF-1/alone: in presence of IGF-1 (SW480 cells; [1]): No effect

SACQFDCHENFYDWFAROVSGOAAYG [Peptide F161]
IC50 in SW480 (M) in presence of IGF-1/alone: in presence of IGF-1 (SW480 cells; [1]): No effect

SFYDCLLDLSIGGPSSDWRRRCITA [Peptide F441]
Activity (MCF7 cells): Antagonist

SFYSCLESLVAGPAEKSRGQWEGCRK [Peptide F259]
inhibition of IGF-1R kinase activation by IGF-1 (purified HIGF-1R): completely inhibit
IC50 (SW480 cells; [4]): 2e-06 M

SFYSCLESLVKRPTERSRGQWVGCR [Peptide F320]
IC50 (IGF-IR): 2000 nM and > 1000 nM
IC50 (IRS-1): > 2000 nM
IC50 (MAPK42): 1000 nM
IC50 (MAPK44): 1000 nM
IC50 in SW480 (M) in presence of IGF-1/alone: in presence of IGF-1 (SW480 cells; [1]): No effect

SFYSCLESLVNGGAERSEGOWEGCR [Peptide F113]
IC50 (SW480 cells; [2]): > 1e-05 M
IC50 (SW480 cells; [3]): > 1e-05 M

SFYSCLESLVNGPAEKSRGQWDGCR [Peptide F249]
IC50 (SW480 cells; [5]): > 1e-05 M
IC50 (SW480 cells; [4]): > 1e-05 M

SFYSCLESLVTGPAEKSRGQWEGCRK [Peptide F292]
IC50 (SW480 cells; [5]): 1e-06 M
IC50 (SW480 cells; [4]): 1e-07 M

SFYSCLGSLLTGAPQPIRGAWDRCR [Peptide F144]
IC50 in SW480 (M) in presence of IGF-1/alone: in presence of IGF-1 (SW480 cells; [1]): No effect

VEGRGLFYDLLRQLLARRQNG [Peptide F158]
IC50 in SW480 (M) in presence of IGF-1/alone: in presence of IGF-1 (SW480 cells; [1]): No effect

VQDDCRGRPCGDADSFYEWFDQQAS [Peptide F263]
IC50 (SW480 cells; [5]): > 1e-06 M
IC50 (SW480 cells; [4]): > 1e-06 M
